This test addresses T1, Arg-1 (Mus musculus, UniProt Q61176).
T1 construct: endogenous in cells; host or cells: primary G-MDSCs sorted from the spleen of tumor-bearing or CIA mice, and exosomes from their culture supernatant
T1 sequence (Q61176 1-323): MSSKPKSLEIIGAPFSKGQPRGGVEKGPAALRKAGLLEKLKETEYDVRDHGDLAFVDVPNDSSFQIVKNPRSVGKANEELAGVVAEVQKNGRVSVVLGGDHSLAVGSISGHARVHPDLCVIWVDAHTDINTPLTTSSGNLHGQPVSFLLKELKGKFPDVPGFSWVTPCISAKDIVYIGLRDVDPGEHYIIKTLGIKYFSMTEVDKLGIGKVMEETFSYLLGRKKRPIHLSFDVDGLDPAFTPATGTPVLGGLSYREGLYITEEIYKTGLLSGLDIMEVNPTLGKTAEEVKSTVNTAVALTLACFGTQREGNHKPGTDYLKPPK
The test is described as follows: Arg-1 activity detection (arginase assay kit). To be noted: nor-NOHA (5 mg/ml in DMSO) added to G-MDSC culture; FIG. 7A. It is filed as biochemical. The procedure: (1) The activity detection of Arg-1 in G-MDSC exo and inhibition effect of nor-NOHA on the Arg-1 activity in G-MDSC exo: The sorted G-MDSCs are same to example 1. Inoculate 2×10^6 G-MDSCs per well in 24 well plate, and add 1 ml of RPMI-1640 medium and culture at 37° C., 5% CO2 for 16 h. The culture supernatant is collected and used for preparing G-MDSC exo, then the G-MDSC exo was lysed (the same with example 2), and the G-MDSC exo activity was measured with the arginase assay kit from eBioscience company. 5 mg of nor-NOHA powder was dissolved with 1 ml of DMSO, 5 mg/ml nor-NOHA solution is prepared. Experimental groups were treated as follows:
G-MDSC group: G-MDSCs were cultured, and cells are collected.
(G-MDSC+DMSO) group: G-MDSC is cultured after adding […] of DMSO, and cells were collected.
(G-MDSC+NN) group: G-MDSC is cultured after adding […] of nor-NOHA, and cells were collected.
G-MDSC exo group: G-MDSC is cultured, culture supernatant was collected.
(G-MDSC+DMSO) exo group: G-MDSC is cultured after adding […] of DMSO, culture supernatant was collected.
(G-MDSC+NN) exo group: G-MDSC is cultured after adding […] of nor-NOHA, culture supernatant was collected.

Structures are written as SMILES.

As for `N=C(NO)NCC[C@H](N)C(=O)O` [NN, nor-NOHA], the “inhibition of Arg-1 activity in G-MDSC exo” value is on record as “could be inhibited”.

The values above are taken from US11154571B2, “Exosomes sourced from granulocytic myeloid-derived suppressor cells and application thereof” (Jiangsu University, priority 2015, dated 2021).
